Experimental data as given in US20200317642A1, “AMINE-SUBSTITUTED HETEROCYCLIC COMPOUNDS AS EHMT2 INHIBITORS AND DERIVATIVES THEREOF” (Epizyme, Inc., priority 2017, published 2020).

target: T1, EHMT1 (Homo sapiens, UniProt Q9H9B1); assay: EHMT1 PEP enzyme assay; assay type: biochemical; conditions: Table 3; read-out: EHMT1 PEP (IC50 μM)
T1 sequence (Q9H9B1 1-1298): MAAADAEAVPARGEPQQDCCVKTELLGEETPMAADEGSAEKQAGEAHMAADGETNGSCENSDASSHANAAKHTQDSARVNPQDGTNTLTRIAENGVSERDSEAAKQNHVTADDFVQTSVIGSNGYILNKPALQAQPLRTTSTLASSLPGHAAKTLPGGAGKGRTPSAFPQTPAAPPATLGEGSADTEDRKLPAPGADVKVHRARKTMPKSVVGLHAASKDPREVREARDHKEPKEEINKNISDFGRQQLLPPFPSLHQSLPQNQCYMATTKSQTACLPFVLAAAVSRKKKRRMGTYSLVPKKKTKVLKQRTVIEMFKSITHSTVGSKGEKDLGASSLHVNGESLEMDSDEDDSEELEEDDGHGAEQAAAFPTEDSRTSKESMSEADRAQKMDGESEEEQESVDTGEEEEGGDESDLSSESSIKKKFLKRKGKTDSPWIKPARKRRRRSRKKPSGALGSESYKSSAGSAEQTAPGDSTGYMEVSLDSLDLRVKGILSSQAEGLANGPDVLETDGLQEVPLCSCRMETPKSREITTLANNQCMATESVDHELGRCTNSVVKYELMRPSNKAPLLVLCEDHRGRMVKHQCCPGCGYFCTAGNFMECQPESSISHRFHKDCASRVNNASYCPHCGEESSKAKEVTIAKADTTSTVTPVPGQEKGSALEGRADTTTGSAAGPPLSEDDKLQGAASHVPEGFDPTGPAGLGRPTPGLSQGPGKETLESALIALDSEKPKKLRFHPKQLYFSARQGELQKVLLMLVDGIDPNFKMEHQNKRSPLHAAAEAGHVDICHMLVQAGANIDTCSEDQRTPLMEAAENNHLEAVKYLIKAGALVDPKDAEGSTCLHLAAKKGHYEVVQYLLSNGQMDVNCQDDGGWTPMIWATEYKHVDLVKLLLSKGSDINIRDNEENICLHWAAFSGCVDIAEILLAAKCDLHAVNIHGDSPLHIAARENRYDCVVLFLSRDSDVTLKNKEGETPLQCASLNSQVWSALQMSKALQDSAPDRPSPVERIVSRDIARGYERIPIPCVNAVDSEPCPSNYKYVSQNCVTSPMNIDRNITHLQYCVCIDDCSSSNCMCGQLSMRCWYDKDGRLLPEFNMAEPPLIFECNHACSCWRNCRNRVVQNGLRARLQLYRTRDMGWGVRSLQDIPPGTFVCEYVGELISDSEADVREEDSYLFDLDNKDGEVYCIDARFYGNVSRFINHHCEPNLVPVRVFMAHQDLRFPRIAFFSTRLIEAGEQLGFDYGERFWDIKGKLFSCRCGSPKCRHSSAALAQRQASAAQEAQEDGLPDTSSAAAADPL

| IC50 | Compound |
| --- | --- |
| 0.1 to 1 µM | CNc1cc(C)nc(Nc2ccc(Cl)c(C(=O)NCC3CCC3)c2)n1 [Compound 3] |
| 1 to 10 µM | CNc1cc(C)nc(Nc2ccc(Cl)c(C(=O)Nc3cocn3)c2)n1 [Compound 14, 2-chloro-5-[[4-methyl-6-(methylamino)pyrimidin-2-yl]amino]-N-(1,3-oxazol-4-yl)benzamide] |
| < 0.1 µM | CNc1cc(C)nc(Nc2ccc(Cl)c(C(=O)NCCN3CCCC3)c2)n1 [Compound 7] |
| > 10 µM | CNc1cc(C)nc(Nc2ccc(OC)c(OC[C@H](O)CN3CCCCC3)c2)n1 [Compound 40] |
| 1 to 10 µM | CNc1cc(C)nc(Nc2ccc(Cl)c(C(=O)Nc3ccccc3)c2)n1 [Compound 10] |
| > 10 µM | CNc1cc(C)nc(Nc2ccc(C)c(C(=O)Nc3cn(C4CC4)cn3)c2)n1 [Compound 36] |
| 1 to 10 µM | CNc1cc(C)nc(Nc2ccc(Cl)c(C(=O)Nc3ncco3)c2)n1 [Compound 6] |
| 1 to 10 µM | CNc1cc(C)nc(Nc2ccc(C)c(C(=O)Nc3c[nH]cn3)c2)n1 [Compound 37] |
| < 0.1 µM | CNc1cc(C)nc(Nc2ccc(OC)c(C#CCN3CCNCC3)c2)n1 [Compound 28, 2-N-[4-methoxy-3-[3-(piperazin-1-yl)prop-1-yn-1-yl]phenyl]-4-N,6-dimethylpyrimidine-2,4-diamine] |
| > 10 µM | CNc1cc(C)nc(Nc2ccc(Cl)c(C(=O)NC3CCOCC3)c2)n1 [Compound 8] |
| 0.1 to 1 µM | CNc1cc(C)nc(Nc2ccc(OC)c(CNCCN3CCC[C@@H]3C)c2)n1 [Compound 32] |
| 0.1 to 1 µM | CNc1cc(C)nc(Nc2ccc(OC)c(CN[C@@H](C)CN3CCCC3)c2)n1 [Compound 47] |
| 1 to 10 µM | CNc1cc(C)nc(Nc2ccc(Cl)c(C(=O)NCC3COC3)c2)n1 [Compound 2, 2-chloro-5-[[4-methyl-6-(methylamino)pyrimidin-2-yl]amino]-N-(oxetan-3-ylmethyl)benzamide] |
| 0.1 to 1 µM | CCCCNC(=O)c1cc(Nc2nc(C)cc(NC)n2)ccc1Cl [Compound 9] |
| 0.1 to 1 µM | CNc1cc(C)nc(Nc2ccc(OC)c(CNC[C@@H](C)N3CCCC3)c2)n1 [Compound 42] |
| 0.1 to 1 µM | CNc1cc(C)nc(Nc2ccc(OC)c(CN[C@H](C)CN3CCCC3)c2)n1 [Compound 48] |
| > 10 µM | CNc1cc(C)nc(Nc2ccc(OC)c(CNCCN3CC(C)C3)c2)n1 [Compound 35] |
| < 0.1 µM | CNc1cc(C)nc(Nc2ccc(Br)c(CNCCN3CCCC3)c2)n1 [Compound 1, 2-N-[4-bromo-3-([[2-(pyrrolidin-1-yl)ethyl]amino]methyl)phenyl]-4-N,6-dimethylpyrimidine-2,4-diamine] |
| > 10 µM | CNc1cc(C)nc(Nc2ccc(OC)c(C#CC[N+](C)(C)CCN)c2)n1 [Compound 45] |
| 0.1 to 1 µM | CNc1cc(C)nc(Nc2ccc(OC)c(CNCCN3CC[C@@H](C)C3)c2)n1 [Compound 38] |
| 1 to 10 µM | CNc1cc(C)nc(Nc2ccc(Cl)c(C(=O)NCC3CC3)c2)n1 [Compound 4] |
| 0.1 to 1 µM | CNc1cc(C)nc(Nc2ccc(Cl)c(C(=O)Nc3cscn3)c2)n1 [Compound 13] |
| < 0.1 µM | CNc1cc(C)nc(Nc2ccc(C3CC3)c(CNCCN3CCCC3)c2)n1 [Compound 11, 2-N-[4-cyclopropyl-3-([[2-(pyrrolidin-1-yl)ethyl]amino]methyl)phenyl]-4-N,6-dimethylpyrimidine-2,4-diamine] |
| 1 to 10 µM | CNc1cc(C)nc(Nc2ccc(C)c(C(=O)Nc3ncn(C)n3)c2)n1 [Compound 33] |
| < 0.1 µM | CNc1cc(C)nc(Nc2ccc(OC)c(CNCCN3CCC[C@H]3C)c2)n1 [Compound 31] |

same assay, conditions: Table 3A; read-out: EHMT1 (IC50 μM)

| Compound | IC50 |
| --- | --- |
| CNC1=Nc2cc(-n3cc(CN4CCC4)cn3)c(Cl)cc2C12CCC2 [Compound A17, 6′-(4-(azetidin-1-ylmethyl)-1H-pyrazol-1-yl)-5′-chloro-N-methylspiro[cyclobutane-1,3′-indol]-2′-amine] | 0.01 to 0.1 µM |
| CNC1=Nc2cc(-n3cc([C@@H]4CCCN4)nn3)c(Cl)cc2C12CCC2 [Compound A2S, (S)-5′-chloro-N-methyl-6′-(4-(pyrrolidin-2-yl)-1H-1,2,3-triazol-1-yl)spiro[cyclobutane-1,3′-indol]-2′-amine] | 0.01 to 0.1 µM |
| CNc1cc(C)nc(Nc2ccc(OC)c(-n3cc4c(n3)CCNC4)c2F)n1 [Compound A19, N2-(2-fluoro-4-methoxy-3-(4,5,6,7-tetrahydro-2H-pyrazolo[4,3-c]pyridin-2-yl)phenyl)-N4,6-dimethylpyrimidine-2,4-diamine] | 0.1 to 1 µM |
| CNC1=Nc2cc(-n3cc([C@H]4CCCN4)nn3)c(Cl)cc2C12CCC2 [Compound A2R, (R)-5′-chloro-N-methyl-6′-(4-(pyrrolidin-2-yl)-1H-1,2,3-triazol-1-yl)spiro[cyclobutane-1,3′-indol]-2′-amine] | < 0.01 µM |
| CNc1cc(C)nc(Nc2ccc(OC)c(-n3cc([C@@H]4CCCN4)nn3)c2F)n1 [Compound A4S] | 0.01 to 0.1 µM |

More lines, now with the values ahead:

| IC50 | Compound |
| --- | --- |
| 0.01 to 0.1 µM | CNCc1cn(-c2c(OC)cc3c(c2F)N=C(N)C32CCC2)nn1 [Compound A22] |
| < 0.01 µM | CNc1cc(C)nc(Nc2ccc(Cl)c(-n3cc(CN)cn3)c2Cl)n1 [Compound A6] |
| < 0.01 µM | CNCc1cn(-c2c(OC)ccc(Nc3nc(C)cc(NC)n3)c2F)nn1 [Compound A3, N2-(2-fluoro-4-methoxy-3-[4-[(methylamino)methyl]-1H-1,2,3-triazol-1-yl]phenyl)-N4,6-dimethylpyrimidine-2,4-diamine] |
| < 0.01 µM | CNC1=Nc2cc(-n3cc(C4CCCN4)nn3)c(Cl)cc2C12CCC2 (stereo not shown) [Compound A2] |
| 0.1 to 1 µM | CNc1cc(C)nc(Nc2ccc(OC)c(-n3cc(CNC(C)C)cn3)c2F)n1 [Compound A5] |
| 0.01 to 0.1 µM | CNCc1cn(-c2cc3c(cc2Cl)C2(CCC2)C(N)=N3)nn1 [Compound A15, 5′-chloro-6′-(4-((methylamino)methyl)-1H-1,2,3-triazol-1-yl)spiro[cyclobutane-1,3′-indol]-2′-amine] |
| < 0.01 µM | CNCc1cc(-c2c(OC)ccc(Nc3nc(C)cc(NC)n3)c2F)no1 [Compound A14, N2-(2-fluoro-4-methoxy-3-[5-[(methylamino)methyl]-1,2-oxazol-3-yl]phenyl)-N4,6-dimethylpyrimidine-2,4-diamine] |
| 0.1 to 1 µM | CNc1cc(C)nc(Nc2ccc(OC)c(-n3ncc4c3CCNC4)c2F)n1 [Compound A9, N2-(2-fluoro-4-methoxy-3-(4,5,6,7-tetrahydro-1H-pyrazolo[4,3-c]142yridine-1-yl)phenyl)-N4,6-dimethylpyrimidine-2,4-diamine] |
| 0.01 to 0.1 µM | CCNCc1cnn(-c2c(OC)ccc(Nc3nc(C)cc(NC)n3)c2F)c1 [Compound A7] |
| 0.01 to 0.1 µM | CNCc1cn(-c2c(OC)cc3c(c2F)N=C(NC)C32CCC2)nn1 [Compound A21] |
| < 0.01 µM | CNCc1cn(-c2cc(Nc3nc(C)cc(NC)n3)ccc2Cl)nn1 [Compound A1] |
| < 0.01 µM | CNCc1cn(-c2cc3c(cc2Cl)C2(CCC2)C(NC)=N3)nn1 [Compound A11, 5′-chloro-N-methyl-6′-(4-((methylamino)methyl)-1H-1,2,3-triazol-1-yl)spiro[cyclobutane-1,3′-indol]-2′-amine] |
| 0.1 to 1 µM | CNC1=Nc2cc(-c3cc4n(n3)CCN(C)C4)c(Cl)cc2C12CCC2 [Compound A12, 5′-chloro-N-methyl-6′-(5-methyl-4,5,6,7-tetrahydropyrazolo[1,5-a]145yrazine-2-yl)spiro[cyclobutane-1,3′-indol]-2′-amine] |
